According to patent publication US11380440B1, “Marker screening and signal detection” (Cerner Innovation, Inc., priority 2011, dated 2022):

System: patients admitted to hospital with AMI

Row | SMILES | actual number of deaths (386 exposed patients of the 6,699 cohort (FIG. 4A column 415)) | expected number of deaths (Monte Carlo simulation, 2,000 burn-in and 50,000 iterations (FIG. 4A column 420)) | in-house mortality percentage (count of deaths from the number receiving exposure) (Table 500 column 520, cohort of 6,699 AMI inpatients, 5.7% of the cohort died)
1 | O=C(O)c1cn(C2CC2)c2cc(N3CCNCC3)c(F)cc2c1=O [Ciprofloxacin] | 129 | 28.3 | –
2 | CC(C)c1c(C(=O)Nc2ccccc2)c(-c2ccccc2)c(-c2ccc(F)cc2)n1CC[C@@H](O)C[C@@H](O)CC(=O)O [atorvastatin] | – | – | 3.4%
